Key:
[1] = tested on: BALB/c male mice; assay: Mouse model for pruritus: scratching after compound 48/80; type: in vivo
Method: The animals used were BALB/c male mice, weighing 27-33 g. One mouse was used per compound tested, except for two control mice receiving saline; two different mice were tested with (+) methadone, each with a different dose. Compound 48/80 (Kuraishi, Y. et al., European Journal of Pharmacology 275:229-233, 1995), 0.5 mg/ml in saline, was injected subcutaneously in a volume of 0.1 ml, between the shoulder blades of the mouse. Test compounds, dissolved in saline, were injected intraperitoneally in a volume of 0.1 ml per 10 g, either 10 minutes before or 30 minutes after injection of compound 48/80. The cumulative number of scratches with a hind leg were recorded at 10 minute intervals for 60 minutes following the injection of compound 48/80. See Tables 2 and 3, as well as FIGS. 4, 5A and 5B, showing the effectiveness of the compounds tested: naltrexone, dextromethorphan, (+) methadone, haloperidol, and (+) naloxone.

[2] = tested on: crib-biting horses; assay: Rate of crib-biting in horses after drug treatment; type: in vivo, horse
Method: Horses were admitted to the Large Animal Hospital of Tufts University School of Veterinary Medicine or were tested in their home barn. Cribbing straps and food were removed prior to testing. Control rates of crib-biting were observed and recorded for 5 minute intervals for one hour or more after an intravenous injection of 0.15 M saline. Test drugs were administered orally (by gavage) or by injection into the jugular vein. Solutions were made up with physiological saline and sterilized by filtration through a 0.2 micron filter (Millipore).
For the experimental data shown in FIG. 1, after establishment of a stable control rate of approximately 10 crib-bites per minute, 50 mg of D-methadone-HCl in 25 ml saline was injected i.v. In FIG. 1, the cumulative number of crib-bites was plotted against time as was the rate per 5 minute interval (Shuster, L. and N. H. Dodman, pp. 185-202, In Psychopharmacology of Animal Behavior Disorders, (N. H. Dodman and L. Shuster, eds.), Blackwell Scientific, Malden, Mass., 1998). […] The control rate then resumed during the next 80 minutes of observation. Horses were observed continuously during scoring for side effects that might be attributed to the treatment. These included changes in posture, disposition and motor activity. See also Table 1.

[3] = tested on: stall-walking horse; assay: Stall-walking (turning) in a horse, circuits around the stall; type: in vivo; details: horse Full Circle (turning), 1.0 mg/kg, iv.
Method: Dextromethorphan-HBr, 1.0 mg/kg i.v., was injected after 60 minutes of control observations, to test its effect on a stall-walking horse. When measuring “stall walking” locomotor activity, each circuit around the stall was scored as one rotation. Cumulative rotations per 5 minute interval were plotted against time to establish the rate of circling. The results of the experiment are plotted in FIG. 2. See also Table 1.

[4] = 10 mg/kg i.p. 10 minutes before 48/80, 10 minutes after 48/80
[5] = 10 mg/kg i.p. 10 minutes before 48/80, 20 minutes after 48/80
[6] = 10 mg/kg i.p. 10 minutes before 48/80, 30 minutes after 48/80
[7] = 10 mg/kg i.p. 10 minutes before 48/80, 40 minutes after 48/80
[8] = 10 mg/kg i.p. 10 minutes before 48/80, 50 minutes after 48/80
[9] = 10 mg/kg i.p. 10 minutes before 48/80, 60 minutes after 48/80
[10] = 20 mg/kg i.p. 30 minutes after 48/80, time 10 minutes (before dosing)
[11] = 20 mg/kg i.p. 30 minutes after 48/80, time 20 minutes (before dosing)
[12] = 20 mg/kg i.p. 30 minutes after 48/80, time 30 minutes
[13] = 20 mg/kg i.p. 30 minutes after 48/80, time 40 minutes
[14] = 20 mg/kg i.p. 30 minutes after 48/80, time 50 minutes
[15] = 20 mg/kg i.p. 30 minutes after 48/80, time 60 minutes
[16] = horse CB, 0.2 mg/kg, iv., before treatment 8.2
[17] = horse CB, 0.2 mg/kg, iv., before treatment 8.8

`COc1ccc2c(c1)[C@]13CCCC[C@@H]1[C@H](C2)N(C)CC3` [Dextromethorphan] was tested, and the “Cumulative Scratches” value [1, 4] was 1, the “Cumulative Scratches” value [1, 5] was 57 and the “Cumulative Scratches” value [1, 6] was 105. For the same compound, the “Cumulative Scratches” value [1, 7] was 157, the “Cumulative Scratches” value [1, 8] was 182 and the “Cumulative Scratches” value [1, 9] was 192. The “Cumulative Scratches” value [1, 10] was 47, the “Cumulative Scratches” value [1, 11] was 125 and the “Cumulative Scratches” value [1, 12] was 158. The “Cumulative Scratches” value [1, 13] was 171, the “Cumulative Scratches” value [1, 14] was 178 and the “Cumulative Scratches” value [1, 15] was 185. For the same compound, the “Duration of Effect” value ([2]; horse CB, 1.0 mg/kg, i.v.) was 35 min, the lag before effect ([2]; horse CB, 1.0 mg/kg, i.v.) was “(no lag)” and the “Crib-biting Frequency number per minute After treatment” value ([2]; horse CB, 1.0 mg/kg, i.v., before treatment 7.6) was 0.3 number per minute. The “Duration of Effect” value ([2]; horse CB, 1.0 mg/kg, p.o.) was 90 min, the lag before effect ([2]; horse CB, 1.0 mg/kg, p.o.) was “(35 min lag)” and the “Crib-biting Frequency number per minute After treatment” value ([2]; horse CB, 1.0 mg/kg, p.o., before treatment 8) was 1.7 number per minute. For the same compound, the “Duration of Effect” value ([2]; horse Frito, 3.2 mg/kg p.o.) was 100 min, the lag before effect ([2]; horse Frito, 3.2 mg/kg p.o.) was “(30 min lag)” and the “Crib-biting Frequency number per minute After treatment” value ([2]; horse Frito, 3.2 mg/kg p.o., before treatment 3.5) was 1.8 number per minute. The “Duration of Effect” value [3] was 45 min, the lag before effect [3] was “(no lag)” and the “turns per min. After treatment” value ([3]; before treatment 3.5 turns per min.) was “.3 turns turns per min”.

For `CNC1(c2ccccc2Cl)CCCCC1=O` (stereo not drawn) [ketamine], the “Crib-biting Frequency number per minute After treatment” value [2, 16] was 1.3 number per minute, the “Duration of Effect” value [2, 16] was 50 min and the lag before effect [2, 16] was “(no lag)”.

In the case of `O=C(CCCN1CCC(O)(c2ccc(Cl)cc2)CC1)c1ccc(F)cc1` [Haloperidol], the “Cumulative Scratches” value ([1]; 2.0 mg/kg i.p. 30 minutes after 48/80, time 10 minutes (before dosing)) was 2, the “Cumulative Scratches” value ([1]; 2.0 mg/kg i.p. 30 minutes after 48/80, time 20 minutes (before dosing)) was 87 and the “Cumulative Scratches” value ([1]; 2.0 mg/kg i.p. 30 minutes after 48/80, time 30 minutes) was 108. The “Cumulative Scratches” value ([1]; 2.0 mg/kg i.p. 30 minutes after 48/80, time 40 minutes) was 137, the “Cumulative Scratches” value ([1]; 2.0 mg/kg i.p. 30 minutes after 48/80, time 50 minutes) was 137 and the “Cumulative Scratches” value ([1]; 2.0 mg/kg i.p. 30 minutes after 48/80, time 60 minutes) was 142.

`C=CCN1CC[C@]23c4c5ccc(O)c4O[C@H]2C(=O)CC[C@]3(O)[C@H]1C5` [(+) naloxone] was tested, and the “Cumulative Scratches” value [1, 10] was 4, the “Cumulative Scratches” value [1, 11] was 48 and the “Cumulative Scratches” value [1, 12] was 105. The “Cumulative Scratches” value [1, 13] was 112, the “Cumulative Scratches” value [1, 14] was 146 and the “Cumulative Scratches” value [1, 15] was 175. The “Duration of Effect” value ([2]; horse CB, 0.12 mg/kg, iv.) was 60 min, the lag before effect ([2]; horse CB, 0.12 mg/kg, iv.) was “(30 min lag)” and the “Crib-biting Frequency number per minute After treatment” value ([2]; horse CB, 0.12 mg/kg, iv., before treatment 10) was 6.6 number per minute. For the same compound, the “Duration of Effect” value ([2]; horse CB, 0.18 mg/kg, i.v.) was 60 min, the lag before effect ([2]; horse CB, 0.18 mg/kg, i.v.) was “(no lag)” and the “Crib-biting Frequency number per minute After treatment” value ([2]; horse CB, 0.18 mg/kg, i.v., before treatment 9.2) was 0.8 number per minute.

In the case of `O=C1CC[C@@]2(O)[C@H]3Cc4ccc(O)c5c4[C@@]2(CCN3CC2CC2)[C@H]1O5` [Naltrexone], the “Cumulative Scratches” value [1, 4] was 0, the “Cumulative Scratches” value [1, 5] was 0 and the “Cumulative Scratches” value [1, 6] was 0. For the same compound, the “Cumulative Scratches” value [1, 7] was 1, the “Cumulative Scratches” value [1, 8] was 61 and the “Cumulative Scratches” value [1, 9] was 73.

For `CCC(=O)C(C[C@H](C)N(C)C)(c1ccccc1)c1ccccc1` [(+) Methadone], the “Cumulative Scratches” value ([1]; 5 mg/kg i.p. 30 minutes after 48/80, time 10 minutes (before dosing)) was 0, the “Cumulative Scratches” value ([1]; 5 mg/kg i.p. 30 minutes after 48/80, time 20 minutes (before dosing)) was 56 and the “Cumulative Scratches” value ([1]; 5 mg/kg i.p. 30 minutes after 48/80, time 30 minutes) was 114. For the same compound, the “Cumulative Scratches” value ([1]; 5 mg/kg i.p. 30 minutes after 48/80, time 40 minutes) was 145, the “Cumulative Scratches” value ([1]; 5 mg/kg i.p. 30 minutes after 48/80, time 50 minutes) was 210 and the “Cumulative Scratches” value ([1]; 5 mg/kg i.p. 30 minutes after 48/80, time 60 minutes) was 267. The “Cumulative Scratches” value [1, 4] was 0, the “Cumulative Scratches” value [1, 5] was 0 and the “Cumulative Scratches” value [1, 6] was 0. For the same compound, the “Cumulative Scratches” value [1, 7] was 0, the “Cumulative Scratches” value [1, 8] was 0 and the “Cumulative Scratches” value [1, 9] was 0. For the same compound, the “Cumulative Scratches” value ([1]; 10 mg/kg i.p. 30 minutes after 48/80, time 10 minutes (before dosing)) was 6, the “Cumulative Scratches” value ([1]; 10 mg/kg i.p. 30 minutes after 48/80, time 20 minutes (before dosing)) was 38 and the “Cumulative Scratches” value ([1]; 10 mg/kg i.p. 30 minutes after 48/80, time 30 minutes) was 106. For the same compound, the “Cumulative Scratches” value ([1]; 10 mg/kg i.p. 30 minutes after 48/80, time 40 minutes) was 107, the “Cumulative Scratches” value ([1]; 10 mg/kg i.p. 30 minutes after 48/80, time 50 minutes) was 107 and the “Cumulative Scratches” value ([1]; 10 mg/kg i.p. 30 minutes after 48/80, time 60 minutes) was 107. For the same compound, the “rate of crib-bites per 5 minute interval” value ([2]; 50 mg in 25 ml saline i.v., control rate approximately 10 crib-bites per minute, resumed during the next 80 minutes) was “decreased between the second and the fifth 5-minute interval following injection”, the “Crib-biting Frequency number per minute After treatment” value [2, 17] was 2.6 number per minute and the “Duration of Effect” value [2, 17] was 20 min. For the same compound, the lag before effect [2, 17] was “(10 min lag)”, the “Duration of Effect” value ([2]; horse CB, .01 mg/kg, iv.) was 10 min and the “Crib-biting Frequency number per minute After treatment” value ([2]; horse CB, .01 mg/kg, iv., before treatment 8.2) was 5.5 number per minute.

In the case of (−) naloxone, the “Duration of Effect” value ([2]; horse CB, .04 mg/kg, i.v.) was 65 min, the lag before effect ([2]; horse CB, .04 mg/kg, i.v.) was “(10 min lag)” and the “Crib-biting Frequency number per minute After treatment” value ([2]; horse CB, .04 mg/kg, i.v., before treatment 12) was 0.1 number per minute.

— US6500838B2, “Treatment of stereotypic, self-injurious and compulsive behaviors in man and animals using antagonists of NMDA receptors” (The Trustees of Tufts College, priority 1998, dated 2002)
